In patent US11229680B2, “Autophagy inhibitors” (The Hong Kong University of Science and Technology, priority 2017, dated 2022):
Entries after “also recorded” stand apart in the source; their conditions may differ.

Experiments:
[1] = test system: p62-positive puncta in COS7 cells; assay: p62-positive puncta in starved COS7 cells; format: cell-based; details: COS7 cells expressing mCherry-tagged peptide, starvation
Description: We further quantified the level of p62, one of the best studied selective autophagy substrates, to monitor the autophagic flux in COS7 cells expressing various AnkB/G LIR peptides under the starvation condition (Klionsky et al., 2016; Mizushima et al., 2010). Upon autophagy induction, p62 forms aggregates via its LIR motif-mediated interactions to Atg8s and subsequent incorporation into autophagosomes (Bjorkoy et al., 2005; Pankiv et al., 2007). Only a relatively low and steady level of p62 aggregates is formed if autophagy flux is normal (i.e. p62-positive autophagosomes are steadily cleared by fusing with lysosomes; (Bjorkoy et al., 2005)), and this is indeed the case when cells were expressed with the mCherry vector control (FIG. 7F). […] This is consistent with a previous siRNA-based study showing that knockdown of LC3 but not GABARAP causes p62 accumulation in COS7 cells (Maruyama et al., 2014). Taken together, the above cell-based assays reinforce our earlier conclusion derived from biochemical and structural studies, that the AnkB WT peptide can function as potent autophagy inhibitor by targeting all members of the Atg8 family and the AnkG WT or ER peptides can selectively target the GABARAPs and spare the LC3s.

GABARAP = assay: ITC binding to GABARAP; set-up: species or system human; details: for selectivity towards GABARAP proteins (in words): GABARAP versus LC3, FIGS. 2E and 4C
C. elegans [2] = assay: C. elegans life span; format: in vivo
Description: Autophagy is known to regulate the adult worm aging process. […] The autophagy defect caused by AnkB was weaker than that in autophagy mutants.

[3] = test system: GABARAP-positive puncta in COS7 cells; assay: GABARAP-positive puncta in starved COS7 cells; format: cell-based; details: COS7 cells over-expressing mCherry-tagged peptide, nutrients deprivation
Description: (§1) We used the well-established cultured COS7 cells for assessing autophagy inhibitions by the AnkB/G LIR peptides over-expressed in the cells. We quantified the numbers of endogenous LC3- or GABARAP-positive puncta, which represent LC3 or GABARAP-containing autophagic structures, as readouts to quantify autophagy inhibitions (Klionsky et al., 2016; Mizushima et al., 2010). After nutrients deprivation, obvious accumulations of LC3- or GABARAP-positive puncta could be observed in cells over-expressing mCherry only, indicating induction of autophagy by starvation (FIG. 6C6&E6). […] In contrast, expression of the mCherry-AnkB WR peptide had no impact on the LC3- or GABARAP-puncta numbers (i.e. with the same puncta numbers as expressing the mCherry vector control; FIG. 6C-F).

C. elegans [4] = assay: C. elegans hatching and development; format: in vivo; details: Pnfya-1::Cherry fusion
Description: Autophagy plays critical roles in various physiological processes occurring during development or in adult C. elegans (Zhang et al., 2015). Fewer autophagy mutants develop into larvae. […] 60.8% embryos expressing the AnkB WT peptide hatched, compared to 96.9% of embryos expressing AnkB WR (FIG. 8G). Autophagy mutants also grow slowly. […] Thus, the AnkB WT peptide blocks autophagy during C. elegans development.

LGG-2 = molecular target: T1, LGG-2 (Caenorhabditis elegans, UniProt Q23536); assay: ITC binding to purified LGG-2; set-up: species or system C. elegans
T1 sequence (Q23536 1-130): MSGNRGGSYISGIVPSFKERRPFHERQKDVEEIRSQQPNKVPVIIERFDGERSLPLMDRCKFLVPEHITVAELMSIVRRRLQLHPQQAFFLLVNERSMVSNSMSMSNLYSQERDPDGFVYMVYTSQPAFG
Description: (§2) C. elegans provides an ideal platform to study autophagy and especially to investigate roles of different members of Atg8 in autophagy, because worms contain both GABARAP and LC3 subfamily Atg8s and yet simple enough with one gene for each subfamily (worm lgg-1 and lgg-2 are […] of GABARAP and LC3, respectively). It has also been shown earlier on that lgg-1 and lgg-2 act non-redundantly in autophagy (Wu et al., 2015). Prior to performing autophagy assays in worms, we measured the bindings of various AnkB/G LIR peptides to purified LGG-1 and LGG-2 using the same method as we have described for FIGS. 1&3.

LGG-1 = LGG-1 (Caenorhabditis elegans, UniProt Q09490); assay: ITC binding to purified LGG-1; set-up: species or system C. elegans
Sequence of LGG-1 (Q09490 1-116 limits assumed): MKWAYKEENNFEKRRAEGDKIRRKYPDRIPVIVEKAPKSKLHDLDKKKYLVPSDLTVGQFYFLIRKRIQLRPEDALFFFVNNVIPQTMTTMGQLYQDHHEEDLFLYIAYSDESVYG
Description: as §2

SQST-1::GFP = SQST-1::GFP aggregate accumulation in C. elegans expressing the peptides; format: in vivo
Description: We next determined whether the AnkB WT peptide blocks autophagy in C. elegans. Autophagy is required for degradation of a variety of protein substrates, including the C. elegans p62 homolog SQST-1 during development (Tian et al., 2010). In the wild type animals, SQST-1::GFP is weakly expressed and diffusely localized in the cytoplasm, while numerous SQST-1 aggregates accumulate in autophagy mutants (Tian et al., 2010). The AnkB WT peptide fused with the Cherry reporter (Cherry::AnkB WT) or Cherry::AnkB WR was expressed under the control of the nfya-1 promoter, which is expressed ubiquitously from the embryonic to adult stages. The expression plasmids were injected into animals carrying integrated SQST-1::GFP reporter (bpIs151) and transgenic lines were obtained and analyzed.
Similarly, we also tested the blocking effect of AnkG peptides in C. elegans. […] This observation is somewhat different from that in mammalian heterologous cells. This may be explained by the different roles of the two families in different organisms. In mammal, p62 degradation is dependent on LC3 but not GABARAP (Maruyama et al., 2014), so blocking GABARAP binding has minimal effect on p62 degradation. However, in C. elegans, LGG-1 acts upstream to LGG-2 (Manil-Segalen et al., 2014; Wu et al., 2015), so blocking either of them will lead to defect in SQST-1 degradation.
Although a large collection of autophagy mutants were isolated from genetic screens (Tian et al., 2010), assays to inhibit autophagy activity in a spatiotemporal manner are not available. We investigated whether the AnkB peptide can block autophagy in a tissue- and temporal-specific manner. The AnkB peptide was expressed under the control of tissue-specific promoters, including the promoter of myo-3 for body wall muscle cells, y37A1B.5 for hypodermal cells and vha-6 for intestinal cells. The expression constructs were injected into animals carrying the corresponding tissue-specific SQST-1::GFP expression integrated lines.
We also examined whether the AnkB peptide can impair autophagy in a temporal control manner. The expression of AnkB WT was driven by the promoter of col-19, which is expressed in hypodermal cells from the young adult stage onwards.

[5] = test system: LC3-positive puncta in COS7 cells; assay: LC3-positive puncta in starved COS7 cells; format: cell-based; details: COS7 cells over-expressing mCherry-tagged peptide, nutrients deprivation
Description: as §1

Substance: VEEEWVIVSDEEIEEARQKAPLEITEY [AnkB LIR, recombinant peptide from natural human 440 kD AnkB residues 1588-1614]
- p62-positive puncta versus mCherry vector control [1]: dramatically increased
- affinity to GABARAP higher than AnkG LIR (GABARAP; ITC): about 10 fold
- Median lifespan (C. elegans [2]; Pmyo-3::ch:: fusion (muscle)): 18.12 days
- life span compared to animals expressing Cherry::AnkB WR (C. elegans [2]; Pnfya-1::Cherry fusion): dramatically shortened the life span
- Median lifespan (C. elegans [2]; Pnfya-1::ch:: fusion (ubiquitous)): 16.32 days
- Median lifespan (C. elegans [2]; Pvha-6::ch:: fusion (intestine)): 18.87 days
- Median lifespan (C. elegans [2]; Py37a1b.5::ch:: fusion (hypodermal cells)): 16.64 days
- mean life span (C. elegans [2]; expressed in hypodermal cells): slightly reduced the mean life span
- life span compared to animals expressing Cherry::AnkB WR (C. elegans [2]; expressed in muscle cells and intestinal cells): did not significantly reduce the life span
- GABARAP-positive puncta number [3]: reduced the LC3- and GABARAP-puncta to the background level
- additional time for embryos to develop into L1 larvae compared to AnkB WR (C. elegans [4]): approximately two more hours
- additional time to develop into young adults compared to AnkB WR (C. elegans [4]): ~6 h
- embryos hatched (hatch rate) (C. elegans [4]): 60.8%
- binding to LGG-2 (in words) (LGG-2; purified LGG-2): binds very strongly
- binding to LGG-1 (in words) (LGG-1): binds very strongly
- SQST-1::GFP aggregates (SQST-1::GFP; Cherry fusion, FIG. 8, embryo): a large number of SQST-1::GFP aggregates accumulated
- SQST-1::GFP aggregates (SQST-1::GFP; Cherry fusion, FIG. 8, larvae): a large number of SQST-1::GFP aggregates
- SQST-1::GFP aggregates (SQST-1::GFP; Cherry fusion, nfya-1 promoter (ubiquitous), multiple tissues, embryonic to adult stages): accumulated a large number of SQST-1::GFP aggregates
- SQST-1::GFP aggregates (SQST-1::GFP; col-19 promoter (hypodermal cells from young adult stage onwards), adult): adult-specific accumulation of SQST-1::GFP aggregates
- SQST-1::GFP aggregates (SQST-1::GFP; col-19 promoter, embryonic to L4 larval stages (no peptide expression yet), listed as AnkB WT): no aggregates were found; also recorded: no SQST-1::GFP aggregates
- SQST-1::GFP aggregates (SQST-1::GFP; mCherry fusion, hypodermal cells, embryo (FIG. 9)): a large number of SQST-1::GFP aggregates accumulate
- SQST-1::GFP aggregates (SQST-1::GFP; mCherry fusion, hypodermis, L4 larvae (FIG. 9)): a large number of SQST-1::GFP aggregates accumulate
- SQST-1::GFP aggregates (SQST-1::GFP; myo-3 promoter, muscle cells, L4 larvae): SQST-1::GFP aggregates accumulate
- dependence of SQST-1::GFP aggregates on peptide expression level (SQST-1::GFP; myo-3 promoter, muscle cells, L4 larvae (FIG. 10W-Y), listed as AnkB WT): correlate with the degree of autophagy inhibition; also recorded: increases with increasing expression
- SQST-1::GFP aggregates (SQST-1::GFP; myo-3 promoter, muscle, embryo): a large number of SQST-1::GFP aggregates accumulate
- SQST-1::GFP aggregates (SQST-1::GFP; tissue-specific promoters myo-3, y37A1B.5, vha-6, embryonic to adult stages): a large number of SQST-1::GFP aggregates accumulated
- SQST-1::GFP aggregates (SQST-1::GFP; vha-6 promoter, intestine cells, embryo): SQST-1::GFP aggregates accumulate
- SQST-1::GFP aggregates (SQST-1::GFP; vha-6 promoter, intestine cells, larvae (FIG. 10S, 10T)): SQST-1::GFP aggregates accumulate
- LC3-positive puncta number [5]: reduced the LC3- and GABARAP-puncta to the background level

Substance: E1996R modification of AnkG: AnkG LIR peptide with E1996R modification (PEDDWTEFSSERIREARQAAASHAPS; AnkG E1996R rat recombinant peptide, prepared in the lab)
- selectivity towards GABARAP proteins (in words) (GABARAP): increase in selectivity towards GABARAP proteins

Substance: PEDDWTRFSSEEIREARQAAASHAPS (AnkG E1991R rat recombinant peptide, prepared in the lab) [modified from rat 480 kD AnkG residues 1985-2010]
- p62-positive puncta versus mCherry vector control [1]: no statistically significant increase
- selectivity towards GABARAP proteins (in words) (GABARAP): increase in selectivity towards GABARAP proteins
- binding to GABARAP (in words) (GABARAP; ITC): slightly weaker affinity
- GABARAP-positive puncta number [3]: potently inhibited
- weaker affinity towards LGG-2 than LGG-1 (LGG-2): ~1,000 fold
- binding to LGG-1 (in words) (LGG-1): retained strong binding
- SQST-1::GFP aggregates (SQST-1::GFP; Cherry fusion, hyp7 promoter, epidermis, embryonic to adult stages): caused accumulation of SQST-1::GFP aggregates
- SQST-1::GFP aggregates (SQST-1::GFP; Phyp7::mCherry::AnkG peptides, hypodermis, L4 larvae): a large number of SQST-1::GFP aggregates accumulate
- SQST-1::GFP aggregates (SQST-1::GFP; mCherry::AnkG peptides, embryonic stage (FIG. 10B-D)): accumulation of SQST-1::GFP aggregates
- LC3-positive puncta number [5]: essentially no impact

Substance: E1599R modification of AnkB: AnkB LIR peptide with E1599R modification (VEEEWVIVSDERIEEARQKAPLEITEY; AnkB E1599R human recombinant peptide, prepared in the lab)
- selectivity towards GABARAP proteins (in words) (GABARAP): increase in selectivity towards GABARAP proteins

Substance: AnkG LIR C-helix alone: AnkG LIR C-helix alone (aa 1993-2010) (SSEEIREARQQAAASQSP; UniProt Q12955 1993-2010, looked up, fragment)
- binding to GABARAP (in words) (GABARAP; ITC): no detectable binding
